These results are taken from US9828339B2, “Biphenyl derivatives and methods for preparing same” (DONG-A ST CO., LTD, priority 2013, dated 2017).

pKi: −log10 of the molar value.

Series [1] deals with T1, human muscarinic M3 receptor (Homo sapiens (Human), UniProt P20309). As to the kind of experiment: Antagonism assay on human muscarinic M3 receptor (carbachol-induced intracellular calcium, FLIPR Calcium 5, transfected Cos-7 cells). Conditions: functional inhibitory constant; carbachol-induced intracellular calcium in Cos-7 cells transfected with human M3 receptor. It is filed as cell-based. The essentials:
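Cos-7 cells transfected with human M3 receptor plasmid, pre-treated 3 min with compound, then carbachol-stimulated; intracellular calcium read by FLIPR Calcium 5.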
In general terms: A change in cytosolic calcium serves as a functional read-out for many receptors and channels.

The subject of a further series is Sprague-Dawley (SD) rats. As to the kind of experiment: Acute toxicity test for oral administration on rats. The format is in vivo, rat. The note with it: observed for 4 days. The method, then:
[Experimental Example 4] Acute Toxicity Test for Oral Administration on Rats
In order to confirm acute toxicity of the compounds of the present invention, following experiment was conducted. A low-dose group, a medi-dose group and a high-dose group, wherein the compounds of Examples were administered 100 mg/kg, 300 mg/kg and 1000 mg/kg respectively, were prepared. Methyl cellulose solution (0.5%) was prepared and orally administered to 3 rats of each group (i.e. both sexes of 6-week old Sprague-Dawley (SD) rats; male rats in 142-143 g; female rats in 126.3-127.3 g) in a volume of 10 mL/kg. Mortality, clinical signs and weight and the like were measured for 4 days, and discovered approximate lethal dose (ALD) therefrom were explained in Table 30 below.

Series [2] deals with rhythmic bladder contractions. As to the kind of experiment: Rhythmic bladder contractions in rats (in vivo). Conditions: 0.3 mpk, intravenous, female Sprague-Dawley rats; amplitude reduction of bladder contractions. On the set-up: species or system rat. From the text: [Experimental Example 3] Experiment on Rhythmic Bladder Contractions in Rats (In Vivo)
Female Sprague-Dawley rat was halothane-anesthetized, and a polyethylene catheter was inserted through urethra lay down straight and fixed. Urine in bladder was excreted through the catheter by gently massaging abdomen of the rat, and then removed. A three-way stopcock was connected to the catheter and a pressure transducer was connected to one side of the three-way stopcock to measure pressure, and a syringe was installed at the other side to inject 37° C. of saline solution. The saline solution was slowly injected until regular bladder contractions occurred repeatedly. When regular bladder contractions occurred stably, test compounds were administered intravenously through the tail vein. Inhibitory effect of the test compounds was evaluated by measuring degree of amplitude reduction of bladder contractions.

The target in series [3] is T1, human muscarinic M3 receptor. As to the kind of experiment: Binding assay on human muscarinic M3 receptor ([3H]-methyl scopolamine displacement). The note with it: membranes overexpressing human M3 receptor, Ki from IC50 by Cheng-Prusoff, read-out: Binding Affinity to M3 Receptor, Ki. The essentials:
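Displacement of [3H]-methyl scopolamine from membranes overexpressing human M3, in Tris-HCl, 25 °C, 120 min; filter-bound radioactivity counted. Nonspecific binding with 5 μM atropine; Ki from IC50 via Cheng-Prusoff.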

T1 sequence (P20309 whole entry): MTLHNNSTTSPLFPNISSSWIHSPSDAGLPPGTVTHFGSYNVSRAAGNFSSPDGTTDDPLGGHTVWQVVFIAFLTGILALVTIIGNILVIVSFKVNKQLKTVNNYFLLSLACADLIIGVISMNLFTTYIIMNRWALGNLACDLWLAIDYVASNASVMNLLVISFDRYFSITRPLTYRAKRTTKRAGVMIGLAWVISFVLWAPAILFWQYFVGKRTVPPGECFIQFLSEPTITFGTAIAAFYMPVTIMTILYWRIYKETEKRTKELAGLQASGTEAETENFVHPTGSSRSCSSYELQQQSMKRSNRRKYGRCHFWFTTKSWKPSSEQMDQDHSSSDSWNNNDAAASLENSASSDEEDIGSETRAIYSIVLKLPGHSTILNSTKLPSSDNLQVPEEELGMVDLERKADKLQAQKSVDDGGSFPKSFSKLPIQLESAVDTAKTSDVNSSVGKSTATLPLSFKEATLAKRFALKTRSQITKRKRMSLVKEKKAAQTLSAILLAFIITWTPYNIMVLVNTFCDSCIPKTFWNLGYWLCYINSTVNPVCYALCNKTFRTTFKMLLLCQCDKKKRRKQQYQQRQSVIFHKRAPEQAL

With `Cc1cccc(-c2ccccc2NC(=O)OCCC2CCCN2C)c1` (stereo not shown) [Example 15, 2-(1-methylpyrrolidin-2-yl)ethyl(3′-methyl-[1,1′-biphenyl]-2-yl)carbamate], the pKi in series [1] is 8.39; in series [3], 8.64. Moreover, the “Approximate Lethal Dose (ALD)” value with Sprague-Dawley (SD) rats is reported as above 1000 mg/kg. Moreover, the “Inhibition of Rhythmic bladder contraction in rats” value (from here on “Inhibition”) in series [2] stood at 25.6 ± 2.2%.

For the compound `CN1CCCC1CCOC(=O)Nc1ccc(F)cc1-c1ccc(F)c(Cl)c1` (stereo not shown) [Example 53, 2-(1-methylpyrrolidin-2-yl)ethyl(3′-chloro-4′,5-difluoro-[1,1′-biphenyl]-2-yl)carbamate], the negative-log Ki (pKi) was 9.24 in series [1] and 8.87 in series [3]. Also, in the series on Sprague-Dawley (SD) rats, the “Approximate Lethal Dose (ALD)” value is above 1000 mg/kg. Also, in series [2], the “Inhibition” value worked out at 28.0 ± 5.0%.

With `CN1CC[C@@H](COC(=O)Nc2ccccc2-c2ccccc2)C1` [Example 89, (R)-(1-methylpyrrolidin-3-yl)methyl [1,1′-biphenyl]-2-ylcarbamate], the values for the pKi in series [1] and in series [3] were 9.80 and 8.61, respectively. The “Approximate Lethal Dose (ALD)” value in the series with Sprague-Dawley (SD) rats was above 1000 mg/kg. The “Inhibition” value in series [2] came to 33.9 ± 3.5%.

Consider `CN1CC[C@H](COC(=O)Nc2ccccc2-c2ccccc2)C1` [Example 90, (S)-(1-methylpyrrolidin-3-yl)methyl [1,1′-biphenyl]-2-ylcarbamate], for which the pKi in series [1] is 9.77; in series [3], 8.71. Besides, in the series with Sprague-Dawley (SD) rats, the “Approximate Lethal Dose (ALD)” value is above 1000 mg/kg. Also, in series [2], the “Inhibition” value came out at 27.4 ± 1.9%.

As to `CN1CC[C@@H](COC(=O)Nc2ccccc2-c2cc(F)cc(F)c2)C1` [Example 91, (R)-(1-methylpyrrolidin-3-yl)methyl (3′,5′-difluoro-[1,1′-biphenyl]-2-yl)carbamate], the pKi in series [1] was 8.88; in series [3], 8.35. Also, in the series on Sprague-Dawley (SD) rats, the “Approximate Lethal Dose (ALD)” value is given as above 1000 mg/kg. The “Inhibition” value in series [2] came out at 25.2 ± 2.5%.

`Cc1cccc(-c2ccccc2NC(=O)OC[C@@H]2CCN(C)C2)c1` [Example 100, (R)-(1-methylpyrrolidin-3-yl)methyl(3′-methyl-[1,1′-biphenyl]-2-yl)carbamate]: the pKi in series [1] is 9.19; in series [3] it was 8.61. Besides, the “Approximate Lethal Dose (ALD)” value in the series on Sprague-Dawley (SD) rats is recorded as above 1000 mg/kg. The “Inhibition” value in series [2] stood at 26.0 ± 6.0%.

Consider `CN1CC[C@H](COC(=O)Nc2ccc(F)cc2-c2cc(F)cc(Cl)c2)C1` [Example 129, (S)-(1-methylpyrrolidin-3-yl)methyl(3′-chloro-5,5′-difluoro-[1,1′-biphenyl]-2-yl)carbamate], for which the negative-log Ki (pKi) in series [1] was 8.20; in series [3] it was 7.90. For the same compound, the “Inhibition” value in series [2] is listed as 15.7 ± 1.4%.

For the compound `CN1CC[C@@H](COC(=O)Nc2ccccc2-c2cc(Cl)cc(Cl)c2)C1` [Example 131, (R)-(1-methylpyrrolidin-3-yl)methyl(3′,5′-dichloro-[1,1′-biphenyl]-2-yl)carbamate], the pKi in series [1] is 8.73; in series [3], 7.92. Further, the “Inhibition” value in series [2] amounted to 17.8 ± 2.5%.

In the case of `CN1CC[C@@H](COC(=O)Nc2ccccc2-c2ccc(F)c(Cl)c2)C1` [Example 136, (R)-(1-methylpyrrolidin-3-yl)-methyl (3′-chloro-4′-fluoro-[1,1′-biphenyl]-2-yl)carbamate], the pKi is 9.60 in series [1] and 8.80 in series [3]. Moreover, in the series on Sprague-Dawley (SD) rats, the “Approximate Lethal Dose (ALD)” value was above 1000 mg/kg. In addition, in series [2], the “Inhibition” value worked out at 33.2 ± 4.0%.

Take `CN1CC[C@@H](COC(=O)Nc2ccc(F)cc2-c2cc(F)cc(Cl)c2)C1` [Example 142, (R)-(1-methylpyrrolidin-3-yl)methyl(3′-chloro-5,5′-difluoro-[1,1′-biphenyl]-2-yl)carbamate]: the values for the pKi in series [1] and in series [3] were 8.98 and 8.31, respectively. Besides, the “Inhibition” value in series [2] turned out to be 15.1 ± 3.4%.

Regarding `CN1CC[C@@H](COC(=O)Nc2ccc(F)cc2-c2ccc(F)c(Cl)c2)C1` [Example 143, (R)-(1-methylpyrrolidin-3-yl)methyl(3′-chloro-4′,5-difluoro-[1,1′-biphenyl]-2-yl)carbamate], the results for the pKi in series [1] and in series [3] were 9.17 and 8.95, respectively. Moreover, in the series with Sprague-Dawley (SD) rats, the “Approximate Lethal Dose (ALD)” value is above 1000 mg/kg. Also, in series [2], the “Inhibition” value came out at 24.3 ± 5.5%.

Regarding `CN1CC[C@@H](COC(=O)Nc2ccc(Cl)cc2-c2cccc(Cl)c2)C1` [Example 145, (R)-(1-methylpyrrolidin-3-yl)methyl(3′,5-dichloro-[1,1′-biphenyl]-2-yl)carbamate], the pKi was 8.53 in series [1] and 7.85 in series [3]. In series [2], the “Inhibition” value was 13.1 ± 3.0%.

As for `CN1CC[C@@H](COC(=O)Nc2ccc(Cl)cc2-c2ccc(F)c(Cl)c2)C1` [Example 146, (R)-(1-methylpyrrolidin-3-yl)methyl(3′,5-dichloro-4′-fluoro-[1,1′-biphenyl]-2-yl)carbamate], the figures for the negative logarithm of the Ki (pKi) in series [1] and in series [3] were 8.80 and 8.16, respectively. Besides, the “Inhibition” value in series [2] came out at 8.2 ± 2.9%.

Regarding `CCN1CC[C@@H](COC(=O)Nc2ccccc2-c2ccc(F)c(Cl)c2)C1` [Example 150, (R)-(1-ethylpyrrolidin-3-yl)methyl (3′-chloro-4′-fluoro-[1,1′-biphenyl]-2-yl)carbamate], the results for the negative logarithm of the Ki (pKi) in series [1] and in series [3] were 8.87 and 8.25, respectively. The “Approximate Lethal Dose (ALD)” value in the series on Sprague-Dawley (SD) rats was above 1000 mg/kg. Also, the “Inhibition” value in series [2] turned out to be 25.1 ± 2.5%.

For `CN1CCC[C@H]1COC(=O)Nc1ccccc1-c1ccc(Cl)c(Cl)c1` [Example 166, (S)-(1-methylpyrrolidin-2-yl)methyl(3′,4′-dichloro-[1,1′-biphenyl]-2-yl)carbamate], the negative logarithm of the Ki (pKi) in series [1] was 8.88; in series [3], 8.04. Further, the “Inhibition” value in series [2] was found to be 10.2 ± 1.7%.

As to `CN1CCC[C@H]1COC(=O)Nc1cc(F)c(F)cc1-c1ccc(F)c(Cl)c1` [Example 181, (S)-(1-methylpyrrolidin-2-yl)methyl(3′-chloro-4,4′,5-trifluoro-[1,1′-biphenyl]-2-yl)carbamate], the pKi in series [1] was 9.54; in series [3], 8.48. For the same compound, in series [2], the “Inhibition” value came to 18.1 ± 2.6%.

For the compound `CN1CC[C@@H](COC(=O)Nc2ccc(F)cc2-c2cccc(F)c2)C1` [Example 194, (R)-(1-methylpyrrolidin-3-yl)methyl(3′,5-difluoro-[1,1′-biphenyl]-2-yl)carbamate], the pKi in series [1] is 9.24; in series [3], 8.20. The “Inhibition” value in series [2] is 24.6 ± 2.6%.

Regarding `Cc1cccc(-c2ccccc2NC(=O)OC[C@@H]2CCCN2C)c1` [Example 199, (S)-(1-methylpyrrolidin-2-yl)methyl(3′-methyl-[1,1′-biphenyl]-2-yl)carbamate], the negative-log Ki (pKi) was 9.59 in series [1] and 9.10 in series [3]. Besides, the “Approximate Lethal Dose (ALD)” value in the series with Sprague-Dawley (SD) rats was above 1000 mg/kg. Moreover, in series [2], the “Inhibition” value stood at 27.8 ± 4.5%.

As for `Cc1ccc(NC(=O)OC[C@@H]2CCCN2C)c(-c2cccc(F)c2)c1` [Example 207, (S)-(1-methylpyrrolidin-2-yl)methyl(3′-fluoro-5-methyl-[1,1′-biphenyl]-2-yl)carbamate], the pKi in series [1] was 8.45; in series [3], 7.87. Moreover, the “Inhibition” value in series [2] is 18.2 ± 3.7%.

Usually pKi stands for the negative decadic logarithm of the Ki, by convention in mol/L.
